The data set is described as follows: Dissolvability of insecticide in solvent. In kind it is physicochemical. The source says: It has been determined that certain polar solvents are capable of dissolving at least 10 grams of the insecticide per liter of solvent. For example, it has also been determined that water is not a sufficient polar solvent for certain insecticides, such as fipronil, because it is capable of only dissolving 2.4 milligrams per liter of water. Generally, these polar solvents that are capable of dissolving at least 10 grams of the insecticide per liter are selected from at least one of an alcohol, a ketone, and an ester. More preferably, the polar solvent is selected from the group of octyl alcohol, isopropyl alcohol, methyl alcohol, acetone, carpryl alcohol, propylene carbonate, gamma-butyrolactone, 3-pentanone, 1-methyl-2-pyrrolidinone, and combinations thereof.
In Examples 1 and 2, the lignocellulosic composite material was formed having a thickness of 0.437 inches with a density of about 39 lb/ft^3. […] The fipronil was present in an amount of about 150 PPM based on the dry weight of the lignocellulosic particles. In Example 2, 0.28 grams of fipronil were dissolved in 1.00 grams of the polar solvent to form the insecticide solution. The fipronil was present in an amount of about 30 PPM based on the dry weight of the lignocellulosic particles. The polar solvent was 1-methyl-2-pyrrolidinone (NMP). NMP is capable of dissolving about 289 grams of fipronil per liter of NMP.
In Examples 3 and 4, the lignocellulosic composite material was formed having a thickness of 0.719 inches with a density of about 40 lb/ft^3. In Example 3, 1.15 grams of fipronil were dissolved in 5 grams of the polar solvent to form the insecticide solution. The fipronil was present in an amount of about 50 PPM based on the dry weight of the lignocellulosic particles. […] The fipronil was present in an amount of about 100 PPM based on the dry weight of the lignocellulosic particles. The polar solvent in Examples 3 and 4 was 3-pentanone, which is capable of dissolving about 326 grams of fipronil per liter of 3-pentanone.

Each structure is given as a SMILES string.

`N#Cc1nn(-c2c(Cl)cc(C(F)(F)F)cc2Cl)c(N)c1[S+]([O-])C(F)(F)F` (stereo not drawn) [fipronil, 5-amino-1-(2,6-dichloro-4-(trifluoromethyl)phenyl)-4-((trifluoromethyl)sulfinyl)-1H-pyrazole-3-carbonitrile]: for the setting “solvent 1-methyl-2-pyrrolidinone (NMP)”, the “amount dissolved per liter of NMP” value is “about 289 grams per liter”. The “amount dissolved per liter of 3-pentanone” value (solvent 3-pentanone) is given as “about 326 grams per liter”. The “amount dissolved per liter of water” value (solvent water) is 2.4 milligrams per liter.

These data come from patent US20080190575A1, “Lignocellulosic Composite Material and Method for Preparing the Same” (priority 2004, published 2008).
